Source: patent publication US11583538B2, “Substituted pyrrolo[1,2-a]pyrazines and pyrrolo[1,2-a][1,4]diazepines as TREX1 inhibitors” (Venenum Biodesign, LLC, priority 2019, dated 2023)
Each block holds one molecule with its values, some of them ahead of it.

Biological target: human TREX1 (Homo sapiens (Human), UniProt Q9NSU2)
Assay: TREX1 Exonuclease Assay
Assay type: biochemical
Procedure: For human TREX1, the nucleotide sequence of the gene construct was codon optimized for expression in the bacterial host. The sequence was incorporated into the pMAL-c5e vector (NEB) downstream of a solubility-promoting MBP (maltose binding protein) fusion partner. The fusion protein product was expressed in E. coli strain BL21 (DE3) (Millipore) and purified in a series of chromatographic steps. Initial steps were conducted using a dextrin sepharose affinity column followed by a Q-sepharose ion exchange column (both GE Healthcare). After the second column the MBP partner was removed by incubation with enterokinase (NEB). Further purification was carried out with the second application of a Q-sepharose column followed by a Superdex 75 (GE Healthcare) size exclusion column. Finally, a heparin sepharose column (GE Healthcare) was applied to remove contaminating nucleotides.
To evaluate the effect of compounds on TREX1 activity, test compounds were serially diluted (11-point, 3-fold) from 10 mM stock solutions and delivered to 384-well low-volume assay plates in 80 nL DMSO using an acoustic dispenser. Next, 4 μL of human TREX1 (0.5 nM), or murine TREX1 (1 nM), diluted in assay buffer (20 mM Tris pH 7.5, 5 mM MgCl2, 100 μg/mL BSA, 0.002% Triton X-100, 2 mM DTT), was added to the assay plate. After incubating for 30 minutes, 4 μL of labeled DNA oligonucleotide (500 nM) in assay buffer was added to initiate TREX1 exonuclease activity. The reaction was allowed to proceed for 45 minutes at room temperature prior to the addition of 4 μL of 150 mM EDTA to halt TREX1 activity.

Sequence of human TREX1 (Q9NSU2 whole entry): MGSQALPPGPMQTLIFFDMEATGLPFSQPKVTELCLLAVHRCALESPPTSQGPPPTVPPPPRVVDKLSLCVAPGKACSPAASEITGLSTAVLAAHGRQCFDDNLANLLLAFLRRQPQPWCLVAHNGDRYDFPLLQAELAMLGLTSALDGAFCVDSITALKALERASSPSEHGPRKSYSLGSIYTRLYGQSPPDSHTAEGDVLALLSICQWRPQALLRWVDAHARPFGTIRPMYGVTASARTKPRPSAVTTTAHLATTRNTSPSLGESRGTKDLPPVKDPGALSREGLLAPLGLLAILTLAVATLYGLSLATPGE

Compound: NC(=O)CC[C@H](C(=O)N1Cc2cc(Cl)c(Cl)cc2C1)N1CCC(CCc2ccccc2)N2C[C@H](N)C[C@H]2C1=O (stereo partly drawn) [Example 20]
IC50: 10000 to 100000 nM

Compound: COc1cc(Cl)c(Cl)cc1CNC(=O)[C@@H](CCC(=O)O)N1CCC(CCc2ccccc2)N2C[C@H](N)C[C@H]2C1=O (stereo partly drawn) [Example 21]
IC50: < 1000 nM

Compound: NC(=O)C[C@H](C(=O)NCc1ccc(Cl)c(Cl)c1)N1CCC(CCc2ccccc2)N2C[C@H](N)C[C@H]2C1=O (stereo partly drawn) [Example 23]
IC50: < 1000 nM

Compound: N=C(N)NCCC[C@H](C(=O)NCc1ccc(Cl)c(Cl)c1)N1CCC(CCc2ccccc2)N2C[C@H](N)C[C@H]2C1=O (stereo partly drawn) [Example 24]
IC50: < 1000 nM

Compound: N[C@@H]1C[C@H]2C(=O)N([C@H](CCC(=O)O)C(=O)NCc3ccc(Cl)c(Cl)n3)CCC(CCc3ccccc3)N2C1 (stereo partly drawn) [Example 25]
IC50: < 1000 nM

Compound: N[C@@H]1C[C@H]2C(=O)N([C@H](CCC(=O)O)C(=O)N3CCCC[C@H]3c3ccc(Cl)c(Cl)c3)CCC(CCc3ccccc3)N2C1 (stereo partly drawn) [Example 26]
IC50: < 1000 nM

Compound: N[C@@H]1C[C@H]2C(=O)N([C@H](CCC(=O)O)C(=O)N3CCC[C@H]3c3ccc(Cl)c(Cl)c3)CCC(CCc3ccccc3)N2C1 (stereo partly drawn) [Example 27]
IC50: < 1000 nM

Compound: N[C@@H]1C[C@H]2C(=O)N([C@H](CCC(=O)O)C(=O)NCc3cc(Cl)c(Cl)cn3)CCC(CCc3ccccc3)N2C1 (stereo partly drawn) [Example 28]
IC50: < 1000 nM

Compound: N[C@@H]1C[C@H]2C(=O)N([C@H](CCC(=O)O)C(=O)NCc3cc(Cl)c(Cl)cc3F)CCC(CCc3ccccc3)N2C1 (stereo partly drawn) [Example 31]
IC50: < 1000 nM

Compound: N[C@@H]1C[C@H]2C(=O)N([C@H](CCC(=O)O)C(=O)N3CCOC[C@H]3c3ccc(Cl)c(Cl)c3)CCC(CCc3ccccc3)N2C1 (stereo partly drawn) [Example 32]
IC50: < 1000 nM

Compound: N[C@@H]1C[C@H]2C(=O)N([C@H]3CCN(Cc4ccc(Cl)c(Cl)c4)C3=O)CCC(CCc3ccccc3)N2C1 (stereo partly drawn) [Example 33]
IC50: < 1000 nM

Compound: N[C@@H]1C[C@H]2C(=O)N([C@H]3CCCN(Cc4ccc(Cl)c(Cl)c4)C3=O)CCC(CCc3ccccc3)N2C1 (stereo partly drawn) [Example 34]
IC50: < 1000 nM

Compound: N[C@@H]1C[C@H]2C(=O)N([C@@H]3CCCN(Cc4ccc(Cl)c(Cl)c4)C3=O)CCC(CCc3ccccc3)N2C1 (stereo partly drawn) [Example 35]
IC50: < 1000 nM

Compound: NC(=O)C[C@H](C(=O)NCc1ccc(Cl)c(Cl)n1)N1CCC(CCc2ccccc2)N2C[C@H](N)C[C@H]2C1=O (stereo partly drawn) [Example 36]
IC50: < 1000 nM

Compound: Cn1c(Cl)ccc(CNC(=O)[C@@H](CCC(=O)O)N2CCC(CCc3ccccc3)N3C[C@H](N)C[C@H]3C2=O)c1=O (stereo partly drawn) [Example 37]
IC50: < 1000 nM

Compound: N[C@@H]1C[C@H]2C(=O)N(c3cccn(Cc4ccc(Cl)c(Cl)c4)c3=O)CCC(CCc3ccccc3)N2C1 (stereo partly drawn) [Example 38]
IC50: < 1000 nM

Compound: CC(C)C[C@H](C(=O)NCc1cccc(Cl)c1)N1CCC(CCc2ccccc2)N2C[C@H](N)C[C@H]2C1=O (stereo partly drawn) [Example 43]
IC50: 1000 to 9990 nM

Compound: CC(C)C[C@H](C(=O)NCc1ccccc1Cl)N1CCC(CCc2ccccc2)N2C[C@H](N)C[C@H]2C1=O (stereo partly drawn) [Example 44]
IC50: < 1000 nM

Compound: CC(C)C[C@H](C(=O)NCc1ccc(Cl)cc1Cl)N1CCC(CCc2ccccc2)N2C[C@H](N)C[C@H]2C1=O (stereo partly drawn) [Example 48]
IC50: 1000 to 9990 nM

Compound: CC(C)C[C@H](C(=O)NCc1ccc(C#N)cc1)N1CCC(CCc2ccccc2)N2C[C@H](N)C[C@H]2C1=O (stereo partly drawn) [Example 49]
IC50: < 1000 nM

Compound: CC(C)C[C@H](C(=O)NCc1cc(Cl)cc(Cl)c1)N1CCC(CCc2ccccc2)N2C[C@H](N)C[C@H]2C1=O (stereo partly drawn) [Example 50]
IC50: 1000 to 9990 nM

Compound: CC(C)C[C@H](C(=O)NCc1ccc(F)c(F)c1)N1CCC(CCc2ccccc2)N2C[C@H](N)C[C@H]2C1=O (stereo partly drawn) [Example 53]
IC50: < 1000 nM

Compound: CC(C)C[C@H](C(=O)NCc1ccc(Cl)c(F)c1)N1CCC(CCc2ccccc2)N2C[C@H](N)C[C@H]2C1=O (stereo partly drawn) [Example 54]
IC50: < 1000 nM

Compound: CC(C)C[C@H](C(=O)NCc1ccc(Cl)c(C(F)(F)F)c1)N1CCC(CCc2ccccc2)N2C[C@H](N)C[C@H]2C1=O (stereo partly drawn) [Example 55]
IC50: < 1000 nM

Compound: CC(C)C[C@H](C(=O)NCc1ccc(C(F)(F)F)c(F)c1)N1CCC(CCc2ccccc2)N2C[C@H](N)C[C@H]2C1=O (stereo partly drawn) [Example 56]
IC50: < 1000 nM

Compound: Cc1ccc(CNC(=O)[C@@H](CC(C)C)N2CCC(CCc3ccccc3)N3C[C@H](N)C[C@H]3C2=O)cc1Cl (stereo partly drawn) [Example 57]
IC50: < 1000 nM

Compound: COc1ccc(CNC(=O)[C@@H](CC(C)C)N2CCC(CCc3ccccc3)N3C[C@H](N)C[C@H]3C2=O)cc1Cl (stereo partly drawn) [Example 58]
IC50: < 1000 nM

Compound: COc1ccc(CNC(=O)[C@@H](CC(C)C)N2CCC(CCc3ccccc3)N3C[C@H](N)C[C@H]3C2=O)cc1 (stereo partly drawn) [Example 59]
IC50: < 1000 nM

Compound: CC(C)C[C@H](C(=O)N(C)Cc1ccc(Cl)c(Cl)c1)N1CCC(CCc2ccccc2)N2C[C@H](N)C[C@H]2C1=O (stereo partly drawn) [Example 60]
IC50: < 1000 nM

Compound: CC(C)C[C@H](C(=O)NS(=O)(=O)c1ccccc1)N1CCC(CCc2ccccc2)N2C[C@H](N)C[C@H]2C1=O (stereo partly drawn) [Example 61]
IC50: < 1000 nM

Compound: CC(C)C[C@H](C(=O)NS(=O)(=O)c1ccc(Cl)c(Cl)c1)N1CCC(CCc2ccccc2)N2C[C@H](N)C[C@H]2C1=O (stereo partly drawn) [Example 62]
IC50: 1000 to 9990 nM

IC50: < 1000 nM
Compound: N#CC[C@H](C(=O)NCc1ccc(Cl)cn1)N1CCC(CCc2ccccc2)N2C[C@H](N)C[C@H]2C1=O (stereo partly drawn) [Example 63, (2R)-2-((8R,9aS)-8-amino-1-oxo-5-phenethylhexahydro-1H-pyrrolo[1,2-a][1,4]diazepin-2(3H)-yl)-N-((5-chloropyridin-2-yl)methyl)-3-cyanopropanamide.HCOOH]

Compound: N#CC[C@H](C(=O)NCc1ccc(Cl)c(C(F)(F)F)c1)N1CCC(CCc2ccccc2)N2C[C@H](N)C[C@H]2C1=O (stereo partly drawn) [Example 64]
IC50: < 1000 nM

Compound: CN(Cc1ccc(Cl)c(Cl)c1)C(=O)[C@@H](CC#N)N1CCC(CCc2ccccc2)N2C[C@H](N)C[C@H]2C1=O (stereo partly drawn) [Example 65]
IC50: < 1000 nM

Compound: N#CC[C@H](C(=O)N1CCc2cc(Cl)c(Cl)cc2C1)N1CCC(CCc2ccccc2)N2C[C@H](N)C[C@H]2C1=O (stereo partly drawn) [Example 66]
IC50: 1000 to 9990 nM

Compound: N#CC[C@H](C(=O)N1CCc2c(ccc(Cl)c2Cl)C1)N1CCC(CCc2ccccc2)N2C[C@H](N)C[C@H]2C1=O (stereo partly drawn) [Example 67]
IC50: 1000 to 9990 nM

Compound: N#CC[C@H](C(=O)N1CCOC[C@@H]1c1ccccc1)N1CCC(CCc2ccccc2)N2C[C@H](N)C[C@H]2C1=O (stereo partly drawn) [Example 68]
IC50: 10000 to 100000 nM

Compound: N#CC[C@H](C(=O)N1CCOC[C@H]1c1ccccc1)N1CCC(CCc2ccccc2)N2C[C@H](N)C[C@H]2C1=O (stereo partly drawn) [Example 69]
IC50: 1000 to 9990 nM

Compound: N[C@@H]1C[C@H]2C(=O)N([C@H](CCC(=O)O)C(=O)NCc3ccc(Cl)cn3)CCC(CCc3ccccc3)N2C1 (stereo partly drawn) [Example 70, (4R)-4-((8R,9aS)-8-amino-1-oxo-5-phenethylhexahydro-1H-pyrrolo[1,2-a][1,4]diazepin-2(3H)-yl)-5-(((5-chloropyridin-2-yl)methyl)amino)-5-oxopentanoic Acid]
IC50: < 1000 nM

Compound: N[C@@H]1C[C@H]2C(=O)N([C@H](CCC(=O)O)C(=O)NCc3ccc(Cl)c(Cl)c3)CCC(CCOc3ccccc3)N2C1 (stereo partly drawn) [Example 71, (4R)-4-((8R,9aS)-8-amino-1-oxo-5-(2-phenoxyethyl)hexahydro-1H-pyrrolo[1,2-a][1,4]diazepin-2(3H)-yl)-5-((3,4-dichlorobenzyl)amino)-5-oxopentanoic Acid]
IC50: 1000 to 9990 nM

Compound: COc1ccc(OCC2CCN([C@H](CCC(=O)O)C(=O)NCc3ccc(Cl)c(Cl)c3)C(=O)[C@@H]3C[C@@H](N)CN23)cc1 (stereo partly drawn) [Example 72, (4R)-4-((8R,9aS)-8-amino-5-((4-methoxyphenoxy)methyl)-1-oxohexahydro-1H-pyrrolo[1,2-a][1,4]diazepin-2(3H)-yl)-5-((3,4-dichlorobenzyl)amino)-5-oxopentanoic Acid]
IC50: 1000 to 9990 nM

Compound: Cc1ccc(OCC2CCN([C@H](CCC(=O)O)C(=O)NCc3ccc(Cl)c(Cl)c3)C(=O)[C@@H]3C[C@@H](N)CN23)cc1 (stereo partly drawn) [Example 73]
IC50: 1000 to 9990 nM

Compound: N[C@@H]1C[C@H]2C(=O)N([C@H](CCC(=O)O)C(=O)NCc3ccc(Cl)c(Cl)c3)CCC(COc3ccc(Cl)cc3)N2C1 (stereo partly drawn) [Example 74]
IC50: < 1000 nM

Compound: N[C@@H]1C[C@H]2C(=O)N([C@H](CCC(=O)O)C(=O)NCc3ccc(Cl)c(Cl)c3)CCC(COc3ccc(F)cc3)N2C1 (stereo partly drawn) [Example 75]
IC50: < 1000 nM

Compound: N[C@@H]1C[C@H]2C(=O)N([C@H](CCC(=O)O)C(=O)NCc3ccc(Cl)c(Cl)c3)CCC(COc3cccc(Cl)c3)N2C1 (stereo partly drawn) [Example 76]
IC50: < 1000 nM

Compound: N[C@@H]1C[C@H]2C(=O)N([C@H](CCC(=O)O)C(=O)NCc3ccc(Cl)c(Cl)c3)CCC(COc3ccccc3Cl)N2C1 (stereo partly drawn) [Example 78]
IC50: < 1000 nM

Compound: N[C@@H]1C[C@H]2C(=O)N([C@H](CCC(=O)O)C(=O)NCc3ccc(Cl)c(Cl)c3)CCC(COc3cnccn3)N2C1 (stereo partly drawn) [Example 80]
IC50: 1000 to 9990 nM

Compound: N[C@@H]1C[C@H]2C(=O)N([C@@H]3CCCN(S(=O)(=O)c4ccccc4)C3)CCC(CCc3ccccc3)N2C1 (stereo partly drawn) [Example 84]
IC50: 10000 to 100000 nM

Compound: N[C@@H]1C[C@H]2C(=O)N([C@@H]3CCCN(C(=O)c4ccc(Cl)c(Cl)c4)C3)CCC(CCc3ccccc3)N2C1 (stereo partly drawn) [Example 85]
IC50: 10000 to 100000 nM

Compound: N[C@@H]1C[C@H]2C(=O)N([C@H]3CCCN(S(=O)(=O)c4ccc(Cl)c(Cl)c4)C3)CCC(CCc3ccccc3)N2C1 (stereo partly drawn) [Example 86]
IC50: 1000 to 9990 nM

Compound: N[C@@H]1C[C@H]2C(=O)N([C@H]3CCCN(C(=O)c4ccc(Cl)c(Cl)c4)C3)CCC(CCc3ccccc3)N2C1 (stereo partly drawn) [Example 87]
IC50: 10000 to 100000 nM
